These results are taken from patent US8518947B2, “(Heterocycle/tetrahydropyridine)-(piperazinyl)-1-alcanone and (heterocycle/dihydropyrrolidine)-(piperazinyl)-1-alcanone derivatives, and use thereof as p75 inhibitors” (Sanofi, priority 2009, dated 2013).

Where a name gives a salt, the structure may show the parent alone.

As for `COC(=O)c1ccc(N2C3CCC2CN(CC(=O)N2CC=C(c4cccc5ccoc45)CC2)C3)nc1`, the melting point fell in the range of 158 to 159 °C.

As for `N#Cc1ccc(N2C3CCC2CN(CC(=O)N2CC=C(c4cccc5ccoc45)CC2)C3)nc1`, the melting point was 184 to 185 °C.

`Cc1cc2cc(C3=CCN(C(=O)CN4CC5CCC(C4)N5c4ncc(F)cn4)CC3)ccc2s1` yielded a melting point of 177 to 179 °C.

In turn, `Cc1cc2cc(C3=CCN(C(=O)CN4CCN(c5cccc(C(F)(F)F)n5)CC4)CC3)ccc2s1` [Compound 116, 1-[4-(2-methylbenzo[b]thiophen-5-yl)-3,6-dihydro-2H-pyridin-1-yl]-2-[4-(6-trifluoromethylpyridin-2-yl)piperazin-1-yl]ethanone] yielded a melting point of 121 to 123 °C.

As to `Cc1cc2cc(C3=CCN(C(=O)CN4CC5CCC(C4)N5c4ccc(C(=O)O)cn4)CC3)ccc2s1`, the melting point was 160 to 161 °C.

In turn, `O=C(CN1CCN(c2ccc(C(F)(F)F)cn2)C(=O)C1)N1CC=C(c2ccc3c(c2)OCCO3)CC1` [Compound 49, 4-{2-[4-(2,3-dihydrobenzo[1,4]dioxin-6-yl)-3,6-dihydro-2H-pyridin-1-yl]-2-oxoethyl}-1-(5-trifluoromethylpyridin-2-yl)piperazin-2-one] came in with a melting point of 161 to 162 °C.

`O=C(CN1CC2CCC(C1)N2c1ncc(F)cn1)N1CC=C(c2coc3ccccc23)CC1`: the melting point was 207 to 210 °C.

Take `COC(=O)c1ccc(N2C3CCC2CN(CC(=O)N2CC=C(c4cccc5ccoc45)C2)C3)nc1`: the melting point is 169 to 170 °C.

`Cc1cc2cc(C3=CCN(C(=O)CN4CC5CCC(C4)N5c4ccc(C#N)cn4)CC3)ccc2s1` came in with a melting point of 171 to 172 °C.

On to `O=C(CN1CCN(c2ccc(C(F)(F)F)cn2)CC1)N1CC=C(c2ccc3c(c2)OCCO3)CC1` [Compound 21, 1-[4-(2,3-dihydrobenzo[1,4]dioxin-6-yl)-3,6-dihydro-2H-pyridin-1-yl]-2-[4-(5-trifluoromethylpyridin-2-yl)piperazin-1-yl]ethanone], for which the melting point was in the range of 142 to 143 °C.

`O=C(CN1CCN(c2ccnc3cc(Cl)ccc23)CC1)N1CC=C(c2cccc3ccsc23)CC1` [Compound 106, 1-(4-benzo[b]thiophen-7-yl-3,6-dihydro-2H-pyridin-1-yl)-2-[4-(7-chloroquinolin-4-yl)piperazin-1-yl]ethanone] showed a melting point of 90 to 91 °C.

In turn, `O=C(CN1CCN(c2cccc(Cl)n2)CC1)N1CC=C(c2cccc3ccsc23)CC1` [Compound 107, 1-(4-benzo[b]thiophen-7-yl-3,6-dihydro-2H-pyridin-1-yl)-2-[4-(6-chloropyridin-2-yl)piperazin-1-yl]ethanone] displayed a melting point of 92 to 93 °C.

`C[C@@H]1CN(c2ccc(Cl)cn2)C[C@H](C)N1CC(=O)N1CC=C(c2cccc3ccsc23)CC1` [Compound 101, 1-(4-benzo[b]thiophen-7-yl-3,6-dihydro-2H-pyridin-1-yl)-2-[(2S,6R)-4-(5-chloropyridin-2-yl)-2,6-dimethylpiperazin-1-yl]ethanone] showed a melting point of 157 to 158 °C.

Molecule `O=C(CN1CC2CCC(C1)N2c1ccc(-c2noc(=O)[nH]2)cn1)N1CC=C(c2cccc3ccoc23)CC1` returned a melting point of 230 to 232 °C.

Consider `C[C@@H]1CN(c2ccc(C(F)(F)F)nc2)C[C@H](C)N1CC(=O)N1CC=C(c2cccc3ccsc23)CC1` (as salt: HCl) [Compound 54, 1-(4-benzo[b]thiophen-7-yl-3,6-dihydro-2H-pyridin-1-yl)-2-[(2S,6R)-2,6-dimethyl-4-(6-trifluoromethylpyridin-3-yl)piperazin-1-yl)ethanone], for which the melting point is 225 to 226 °C.

`Cc1cc2cc(C3=CCN(C(=O)CN4[C@H](C)CN(c5ncc(F)cn5)C[C@@H]4C)CC3)ccc2s1` [Compound 38, 2-[(2S,6R)-4-(5-fluoropyrimidin-2-yl)-2,6-dimethylpiperazin-1-yl]-1-[4-(2-methylbenzo[b]thiophen-5-yl)-3,6-dihydro-2H-pyridin-1-yl]ethanone]: the melting point was 205 to 206 °C.

The molecule `Cc1cc2cc(C3=CCN(C(=O)CN4CC5CCC(C4)N5c4ccc(C(=O)OC5CCC5)cn4)CC3)ccc2s1` came in with a melting point of 153 to 154 °C.

`Cc1cc2cc(C3=CCN(C(=O)CN4[C@H](C)CN(c5cncnc5)C[C@@H]4C)CC3)ccc2s1` [Compound 40, 2-((2S,6R)-2,6-dimethyl-4-pyrimidin-5-ylpiperazin-1-yl)-1-[4-(2-methylbenzo[b]thiophen-5-yl)-3,6-dihydro-2H-pyridin-1-yl]ethanone] returned a melting point of 191 to 192 °C.

As for `O=C(O)c1ccc(N2C3CCC2CN(CC(=O)N2CC=C(c4cccc5ccsc45)CC2)C3)nc1` [85], the melting point was 191 to 192 °C.

In turn, `C[C@@H]1CN(c2ccc(-c3nccs3)cn2)C[C@H](C)N1CC(=O)N1CC=C(c2cccc3ccoc23)CC1` (as salt: oxalate) [Compound 119, 1-(4-benzofuran-7-yl-3,6-dihydro-2H-pyridin-1-yl)-2-[(2S,6R)-2,6-dimethyl-4-(5-thiazol-2-ylpyridin-2-yl)piperazin-1-yl]ethanone] gave a melting point of 140 to 145 °C.

For `C[C@@H]1CN(c2ccc(C(F)(F)F)nc2)C[C@H](C)N1CC(=O)N1CC=C(c2ccc3c(c2)OCCO3)CC1` [Compound 45, 1-[4-(2,3-dihydrobenzo[1,4]dioxin-6-yl)-3,6-dihydro-2H-pyridin-1-yl]-2-[(2S,6R)-2,6-dimethyl-4-(6-trifluoromethylpyridin-3-yl)piperazin-1-yl]ethanone], the melting point was 200 to 201 °C.

In turn, `Cn1nnnc1-c1ccc(N2C3CCC2CN(CC(=O)N2CC=C(c4cccc5ccoc45)CC2)C3)nc1` had a melting point of 178 to 180 °C.

Molecule `O=C(O)c1ccc(N2C3CCC2CN(CC(=O)N2CC=C(c4cccc5ccsc45)CC2)C3)nc1` [71] gave a melting point of 121 to 122 °C.

Turning to `C[C@@H]1CN(c2ccc(C(=O)O)cn2)C[C@H](C)N1CC(=O)N1CC=C(c2cccc3ccoc23)CC1` [Compound 57, 6-{(3S,5R)-4-[2-(4-benzofuran-7-yl-3,6-dihydro-2H-pyridin-1-yl)-2-oxoethyl]-3,5-dimethylpiperazin-1-yl}nicotinic acid], the melting point lay within 272 to 274 °C.

As to `COC(=O)c1ccc(N2C3CCC2CN(CC(=O)N2CC=C(c4ccc5sccc5c4)CC2)C3)nc1`, the melting point was 150 to 151 °C.

The molecule `O=C(CN1CCN(c2cccc(Cl)n2)CC1)N1CC=C(c2c[nH]c3ccccc23)CC1` [Compound 108, 2-[4-(6-chloropyridin-2-yl)piperazin-1-yl]-1-[4-(1H-indol-3-yl)-3,6-dihydro-2H-pyridin-1-yl]ethanone] gave a melting point of 202 to 204 °C.

The molecule `C[C@@H]1CN(c2cncnc2)C[C@H](C)N1CC(=O)N1CC=C(c2cccc3ccoc23)CC1` [Compound 35, 1-(4-benzofuran-7-yl-3,6-dihydro-2H-pyridin-1-yl)-2-((2S,6R)-2,6-dimethyl-4-pyrimidin-5-ylpiperazin-1-yl)ethanone] showed a melting point of 142 to 143 °C.

In the case of `O=C(O)c1ccc(N2C3CCC2CN(CC(=O)N2CC=C(c4cccc5ccsc45)C2)C3)nc1`, the melting point fell in the range of 189 to 190 °C.

As for `O=C(CN1CCN(c2cccc(Br)n2)CC1)N1CC=C(c2cccc3ccsc23)CC1` [Compound 113, 1-(4-benzo[b]thiophen-7-yl-3,6-dihydro-2H-pyridin-1-yl)-2-[4-(6-bromopyridin-2-yl)piperazin-1-yl]ethanone], the melting point fell in the range of 80 to 81 °C.

The molecule `O=C(CN1CCN(c2ccc(C(F)(F)F)cn2)C(=O)C1)N1CC=C(c2cccc3ccoc23)C1` [Compound 83, 4-[2-(3-benzofuran-7-yl-2,5-dihydropyrrol-1-yl)-2-oxoethyl]-1-(5-trifluoromethylpyridin-2-yl)piperazin-2-one] yielded a melting point of 184 to 186 °C.

Regarding `C[C@@H]1CN(c2ccc(C(F)(F)F)cn2)C[C@H](C)N1CC(=O)N1CCC=C(c2cccc3ccoc23)C1` [Compound 63, 1-(5-benzofuran-7-yl-3,6-dihydro-2H-pyridin-1-yl)-2-[(2S,6R)-2,6-dimethyl-4-(5-trifluoromethylpyridin-2-yl)piperazin-1-yl]ethanone], the melting point was 129 to 130 °C.

Turning to `O=C(CN1CCN(c2ccc(C(F)(F)F)cn2)C(=O)C1)N1CC=C(c2cccc3ccoc23)CC1` [Compound 32, 4-[2-(4-benzofuran-7-yl-3,6-dihydro-2H-pyridin-1-yl)-2-oxoethyl]-1-(5-trifluoromethylpyridin-2-yl)piperazin-2-one], the melting point was 151 to 152 °C.

The molecule `O=C(O)c1ccc(N2C3CCC2CN(CC(=O)N2CC=C(c4cccc5ccoc45)C2)C3)nc1` showed a melting point of 188 to 189 °C.

The molecule `C[C@@H]1CN(c2ccc(C(F)(F)F)cn2)C[C@H](C)N1CC(=O)N1CC=C(c2c[nH]c3ccccc23)CC1` [Compound 97, 2-[(2S,6R)-2,6-dimethyl-4-(5-trifluoromethylpyridin-2-yl)piperazin-1-yl]-1-[4-(1H-indol-3-yl)-3,6-dihydro-2H-pyridin-1-yl]ethanone] came in with a melting point of 198 to 200 °C.

`Cc1cc2cc(C3=CCN(C(=O)CN4CCN(c5ccnc6cc(Cl)ccc56)CC4)CC3)ccc2s1` [Compound 117, 2-[4-(7-chloroquinolin-4-yl)piperazin-1-yl]-1-[4-(2-methylbenzo[b]thiophen-5-yl)-3,6-dihydro-2H-pyridin-1-yl]ethanone] yielded a melting point of 90 to 93 °C.

Regarding `O=C(CN1CCN(c2ccc(C(F)(F)F)cn2)C(=O)C1)N1CC=C(c2ccc3sccc3c2)CC1` [Compound 43, 4-[2-(4-benzo[b]thiophen-5-yl-3,6-dihydro-2H-pyridin-1-yl)-2-oxoethyl]-1-(5-trifluoromethylpyridin-2-yl)piperazin-2-one], the melting point lay within 169 to 170 °C.

Consider `COC(=O)c1ccc(N2C3CCC2CN(CC(=O)N2CC=C(c4cccc5ccsc45)CC2)C3)nc1`, for which the melting point was 153 to 154 °C.

Turning to `CCCc1cc2cc(C3=CCN(C(=O)CN4[C@H](C)CN(c5ccc(C(F)(F)F)cn5)C[C@@H]4C)CC3)ccc2s1` [Compound 68, 2-[(2S,6R)-2,6-dimethyl-4-(5-trifluoromethylpyridin-2-yl)piperazin-1-yl]-1-[4-(2-propylbenzo[b]thiophen-5-yl)-3,6-dihydro-2H-pyridin-1-yl]ethanone], the melting point lay in the range of 157 to 159 °C.

The melting point is the temperature, or range, at which the solid turns liquid.
